Assay: gradient 5% acetonitrile 3 min, to 50% in 2 min, to 85% in 15 min, held 3 min, 100 µL/min
Conditions: column: Zorbax Extend-C18 2.1 x 50 mm; eluents: water / acetonitrile, 0.1% formic acid
Outline: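 Data were gathered over 3 months by HPLC coupled to a quadrupole time-of-flight mass spectrometer, operated in positive and negative ionization mode. Mixtures of ~100 pure standards ran on a Zorbax Extend-C18 column (2.1 × 50 mm, 1.8 μm) at 100 μL/min, with water and acetonitrile each containing 0.1% formic acid and dead and dwell volumes of 40 μL and 900 μL. Retention time was read from adduct peaks picked by computer and checked manually.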

Going from `Cc1ccnc(N2CCC(C(=O)Nc3ccc(Br)cc3F)CC2)n1` to `O=C(NCc1ccc(F)cc1F)C1CCN(c2cn[nH]c(=O)c2)CC1`, the RP-LC retention time falls from 811 s to 639 s.

First: Fc1ccc(-n2cc(-c3noc(-c4ccccc4)n3)nn2)cc1
Second: O=C(Cn1cccc1-c1nnc(-c2ccccc2)o1)Nc1cccc(F)c1
The RP-LC retention time of the first is higher: 1040 s for the first, 960 s for the second.

First: COC(=O)c1ccc2c(=O)n(Cc3ccc(OC)cc3)c(N3CCOCC3)nc2c1
Second: COc1ccc(C(CNC(=O)c2cc(=O)c3cc(Cl)ccc3o2)N(C)C)cc1 (stereo not drawn)
The RP-LC retention time of the first is higher: 943 s for the first, 650 s for the second.

Going from `CCc1cccc(NC(=O)Cn2cc(C(=O)N3CCCC3)c(=O)c3ccc(C)nc32)c1` to `COc1cccc(CNC(=O)Nc2ccc3nc(N4CCN(C)CC4)cc(C)c3c2)c1`, the RP-LC retention time falls from 753 s to 580 s.

First: CCN1CCN(C(=O)c2nnc(-c3ccc(S(=O)(=O)N4CCCC4)cc3)o2)CC1
Second: COc1ccccc1-c1nnc(-c2cc(S(=O)(=O)N3CCCCC3)ccc2Cl)o1
The RP-LC retention time of the first is lower: 623 s for the first, 1080 s for the second.

Going from `Cc1cc(C(=O)NC(C)C)c2cc(F)ccc2n1` to `CCOC(=O)c1cnc2ccc(OCC)cc2c1NCCN(C)C`, the RP-LC retention time falls from 639 s to 560 s.

First: Cc1nnc(CNC(=O)OC(C)(C)C)n1-c1ccccc1
Second: CC1CCc2c(C(=O)NCCc3ccccc3)csc2C1 (stereo not drawn)
The RP-LC retention time of the first is lower: 624 s for the first, 1080 s for the second.

Going from `O=C(CNC(=O)Cc1ccc(Cl)cc1)NCC(=O)N1CCCc2ccccc21` to `Cc1cc2c(=O)n(CC(=O)N3CCCc4ccccc43)c3cccnc3n2n1`, the RP-LC retention time falls from 770 s to 767 s.

Going from `COc1ncccc1C(=O)N1CCC(C(=O)Nc2cc(C)on2)CC1` to `O=C(c1ccccc1)N1CCC(C(=O)N2CCc3ccccc32)CC1`, the RP-LC retention time rises from 622 s to 750 s.

Compared with `CCOC(=O)c1ccc(-c2c(C(=O)OCC)oc3cc(O)c(CC)cc3c2=O)o1`, `Cc1nnc2sc(SCC(=O)NCc3ccc4c(c3)OCO4)nn2c1=O` is lower in RP-LC retention time: 955 s for the first, 603 s for the second.

Going from `CC(C)c1ccc(NC(=O)C(=O)NC2CC(C)(C)NC(C)(C)C2)cc1` to `CCc1ccc(NC(=O)N2CCC3(CC2)NC(=O)c2cc(C)ccc2N3C)cc1`, the RP-LC retention time rises from 712 s to 874 s.

Compared with `CC1(C)Cc2cccc(OCC(=O)NCc3n[nH]c(=O)c4ccccc34)c2O1`, `CCOc1ccccc1NC(=O)C1(C)Oc2cccnc2N(C)C1=O` (stereo not drawn) is higher in RP-LC retention time: 661 s for the first, 929 s for the second.

Compared with `O=C(NC(c1ccccc1)c1nnc(N2CCOCC2)o1)c1ccc2c(c1)OCO2` (stereo not drawn), `CC(NC(=O)c1ccccc1)c1nc(-c2ccc3c(c2)nnn3C2CCCC2)no1` (stereo not drawn) is higher in RP-LC retention time: 726 s for the first, 964 s for the second.

Going from `CCOc1ccc(C(=O)N2CCN(c3ccc(=O)n(-c4ccc(C(C)C)cc4)n3)CC2)cc1` to `COc1cccc(-c2cc(N3CCN(C(=O)Nc4ccc5c(c4)OCCO5)CC3)ncn2)c1`, the RP-LC retention time falls from 1000 s to 660 s.

Compared with `Cc1ccc(/C=C/S(=O)(=O)NCCn2nc(-c3cccnc3)ccc2=O)cc1`, `O=c1ccc(-c2cccs2)nn1CCNS(=O)(=O)c1ccc(F)c(Cl)c1` is higher in RP-LC retention time: 638 s for the first, 796 s for the second.

Compared with `CCSC(=O)N1c2ccc(OC)cc2C=CC1C#N` (stereo not drawn), `COc1ccc(OC)c(CNC(=O)c2cn3c(n2)COCC3)c1` is lower in RP-LC retention time: 911 s for the first, 639 s for the second.

Going from `CCC(c1cccs1)N1C(=O)[C@H]2CN(S(=O)(=O)c3ccc(C)cc3C)C[C@H]2C1=O` (stereo partly drawn) to `Cc1cc(S(=O)(=O)N2CCC(n3c(-c4ccco4)nc4cccnc43)C2)ccc1F` (stereo not drawn), the RP-LC retention time falls from 842 s to 827 s.

Compared with `O=C(Nc1ccc(F)c(Cl)c1)c1c(O)c2cccnc2n(Cc2ccccc2)c1=O`, `O=C(Nc1cccc2cccnc12)C1COCC(=O)N1Cc1ccccc1` (stereo not drawn) is lower in RP-LC retention time: 1230 s for the first, 777 s for the second.

Going from `COc1ccc(-c2nc(NCCCN3CCCC(C)C3)c3ccccc3n2)cc1` (stereo not drawn) to `COc1ccc(-c2nc(NC3CC3)c3ccccc3n2)cc1`, the RP-LC retention time rises from 572 s to 706 s.

Compared with `COc1ccccc1C1(CNC(=O)Cc2cn(C)c3ccccc23)CCOCC1`, `CSc1ccc(CNC(=O)C2CCN(Cc3cn(C)c4ccc(Cl)cc34)CC2)cc1` is lower in RP-LC retention time: 815 s for the first, 766 s for the second.

Going from `O=C(C1CC(=O)N(c2n[nH]c3ccccc23)C1)N1CCN(CCc2ccccn2)CC1` (stereo not drawn) to `CCN1CCN(CCCNC(=O)c2sc3ncccc3c2-n2c(C)ccc2C)CC1`, the RP-LC retention time rises from 551 s to 607 s.

Going from `Cc1ccc(-c2cn3c(n2)N(C(=O)Cn2ccnc2C)CCC3)cc1` to `CCc1nnc(-c2ccc3ccn(CC(=O)Nc4ccccc4C)c3c2)o1`, the RP-LC retention time rises from 628 s to 826 s.

First: COc1c(O)ccc2c1CN1CCc3cc4c(cc3C1C2)OCO4 (stereo not drawn)
Second: Cc1ccc(NS(=O)(=O)c2cc3c(s2)CCN(C(=O)C2CC2)C3)c(F)c1
The RP-LC retention time of the first is lower: 688 s for the first, 828 s for the second.

First: O=C(C1CC1)N1CCc2sc(S(=O)(=O)NCc3cccc(F)c3)cc2C1
Second: Cc1ccc(C(=O)N2CCc3sc(C(=O)N4CCC5(CC4)OCCO5)cc3C2)cc1
The RP-LC retention time of the first is higher: 805 s for the first, 793 s for the second.

First: Cc1c2cnccc2c(C)c2c1c1ccccc1n2CCOC(=O)c1ccccc1
Second: Cc1noc(C)c1CCNC(=O)c1cc(-c2cccnc2)nc2ccccc12
The RP-LC retention time of the first is higher: 751 s for the first, 652 s for the second.

Compared with `O=C(Nc1cccc(C(F)(F)F)c1)NC1CCN(c2ccccc2)C1=O` (stereo not drawn), `CCOC(=O)C1=C(CN2CCC(c3ccccc3)C2)NC(=O)NC1c1ccc(F)cc1` (stereo not drawn) is lower in RP-LC retention time: 926 s for the first, 687 s for the second.

Going from `CC(=O)N1C[C@@H]2CCCN3CCC[C@@H]([C@H]23)[C@H]1CCCC(=O)NCCN(C)C1CCCCC1` to `CCN1CCN(C(=O)c2cc3n(n2)CC(C)(C(=O)NC2CCCCC2)N(C)C3=O)CC1` (stereo not drawn), the RP-LC retention time rises from 538 s to 584 s.

Going from `COc1ccc2[nH]cc(CCN3CC(C(=O)Nc4ccc(Br)cc4)CC3=O)c2c1` (stereo not drawn) to `CCN1C(=O)c2cccnc2Sc2cc(NC(=O)c3cccc(OC)c3)ccc21`, the RP-LC retention time falls from 844 s to 826 s.

Going from `O=C(c1[nH]nc2c1CCc1ccccc1-2)N1CCC(c2noc(-c3ccncc3)n2)C1` (stereo not drawn) to `Cn1nc(-c2nnc(-c3ccccc3Cl)o2)c2c1CCN(C(=O)COc1ccccc1)C2`, the RP-LC retention time rises from 755 s to 864 s.

Compared with `Cc1[nH]c(C(=O)N2CCCC(C(=O)NCCCN3CCOCC3)C2)c(C)c1C` (stereo not drawn), `CCN1CCC2(CC1)OC(=O)C(C)=C2C(=O)NCCCN1CCN(c2cc(C)ccc2C)CC1` is lower in RP-LC retention time: 597 s for the first, 586 s for the second.

Compared with `Cc1ccc(C)c(-c2nnc(NC(=O)c3ccccc3[N+](=O)[O-])o2)c1`, `Cc1ccc(NC(=O)N2CCc3c(c(-c4nnc(-c5ccc(F)cc5)o4)nn3C)C2)cc1Cl` is higher in RP-LC retention time: 798 s for the first, 1010 s for the second.

Going from `CCCn1nnc2cc(-c3noc(CN4C(=O)COc5ccccc54)n3)ccc21` to `CC(C)Oc1ccc(-c2noc(CN3N=NC4C(=O)N(c5cccc(F)c5)C(=O)C43)n2)cc1` (stereo not drawn), the RP-LC retention time rises from 926 s to 1050 s.

Going from `CCCCOc1ccc(C(=O)Nc2nc3c(s2)CCc2ccc(OC)cc2-3)cc1` to `CCOc1ccc(-c2nnc(SCC(=O)N3c4ccccc4CC3C)o2)cc1` (stereo not drawn), the RP-LC retention time falls from 1360 s to 1110 s.

First: O=C(NOCC(O)CO)c1cc(Br)c(F)c(F)c1Nc1ccc(I)cc1F (stereo not drawn)
Second: CCCn1cc(CCNC(=O)c2c(F)cccc2Cl)c2cccnc21
The RP-LC retention time of the first is higher: 879 s for the first, 764 s for the second.

First: Cc1nc(-c2csc(S(=O)(=O)N3CCCC(C(=O)Nc4ccc(C)c(F)c4)C3)c2)no1 (stereo not drawn)
Second: Cc1nn(CC(=O)NCCCN2CCc3ccccc3C2)c(=O)c2noc(C)c12
The RP-LC retention time of the first is higher: 1030 s for the first, 597 s for the second.

Compared with `COc1ccc(C(=O)NC2CCN(c3cc(-c4ccc(Cl)cc4)[nH]n3)C2)c(OC)c1` (stereo not drawn), `NC(=O)C1CCN(c2ccc3cccc(OCC(=O)NCc4ccco4)c3n2)CC1` is lower in RP-LC retention time: 754 s for the first, 552 s for the second.

Going from `CCOC(=O)C1CCN([C@H]2CS(=O)(=O)C[C@@H]2S(=O)(=O)c2ccc(C)cc2)CC1` to `Cc1ccccc1S(=O)(=O)N1CCC(CCC(=O)NC2CCS(=O)(=O)C2)CC1` (stereo not drawn), the RP-LC retention time falls from 875 s to 726 s.

Compared with `CN1C(=O)c2cccn2CC1CNC(=O)c1nccn1C` (stereo not drawn), `Cn1cnc2cc(CNC(=O)C3CCCC3)ccc21` is higher in RP-LC retention time: 573 s for the first, 586 s for the second.

Compared with `O=C1N(C2CCN(S(=O)(=O)c3cccnc3)CC2)C(c2ccccc2)C12CCCC2` (stereo not drawn), `Cc1nn(C)c(=O)c2cc(S(=O)(=O)NCc3ccccc3)cn12` is lower in RP-LC retention time: 912 s for the first, 776 s for the second.

Going from `Cc1cc(C)c(S(=O)(=O)Nc2ccc(Cn3cncn3)cc2)cc1C` to `CCc1ccccc1S(=O)(=O)NCc1c(-c2ccccc2)nc2sc(C)nn12`, the RP-LC retention time rises from 762 s to 940 s.

Going from `CN(C)c1ccc(CN2CCc3nc(N4CCN(c5ccccc5F)CC4)ncc3C2)cc1` to `CCOc1ccc(CN2CC(N(Cc3ccncc3)S(C)(=O)=O)C2)cc1`, the RP-LC retention time falls from 807 s to 560 s.

Going from `CC1=C(c2ccc(F)cc2)S(=O)(=O)N=C1N1CCCN(C(=O)C2CCCCC2)CC1` to `O=C(Nc1cc(F)c(F)c(F)c1)N1C[C@H]2C[C@H](C1)[C@H]1CCCC(=O)N1C2`, the RP-LC retention time falls from 883 s to 717 s.

First: Cc1ccc(-c2noc(Cc3nc(-c4ccc(F)cc4)cs3)n2)cc1
Second: CC(C)C(=O)Nc1nc(-c2cccc3ccccc23)cs1
The RP-LC retention time of the first is higher: 1310 s for the first, 1020 s for the second.

Going from `COc1cccc(OCC2c3ccsc3CCN2C(=O)CN(C(=O)NC(C)C)C2CC2)c1` (stereo not drawn) to `Cc1noc(CNC(=O)c2cc(C)on2)n1`, the RP-LC retention time falls from 918 s to 592 s.

Reference: the METLIN SMRT retention time set (Domingo-Almenara et al. 2019)
